Results reported in patent US11518764B2, “Substituted heteroaryls as inhibitors of the BCL6 BTB domain protein-protein interaction” (Ontario Institute for Cancer Research (OICR), priority 2018, dated 2022).

Key:
BCL6 BTB domain = BCL6 BTB domain (Homo sapiens (Human), UniProt P41182); assay: Surface plasmon resonance (SPR) assay; format: binding; conditions: BCL6 BTB domain captured on SA chip, single cycle kinetics
[1] = test system: BCL6 reporter construct (3xBCL6-TK-Luc) in SuDHL4 cells; assay: Cell-based luciferase assay; conditions: Homo sapiens, SU-DHL-4, 48 h, read-out: Luciferase-Assay EC50, uM), SuDHL4-3xBCL6-TK-Luc cells, two days, high dose 10 uM
How it was run: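 SuDHL4 cells stably carrying a 3×BCL6-site TK-promoter firefly luciferase reporter, seeded at 15,000 cells/well, were dosed over a 10-point range (top 10 uM) and grown two days at 37 °C, 5% CO2. Luminescence then read after adding neolite reagent at room temperature.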

Karpas422 cells = assay: Tumor cell growth inhibition assay; format: cell-based; conditions: Homo sapiens, KARPAS-422, 144 h, read-out: Tumor Growth Inhibition in Karpas-422 (IC50, uM), Karpas422 cells, six days, ATPlite
How it was run: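 Karpas422 cells (2,000/well) in Alpha-MEM with 10% FBS dosed across 10 concentrations (top 5 uM) and grown six days at 37° C., 5% CO2. Viability read as ATPlite luminescence.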

SMILES | Kd (BCL6 BTB domain) | EC50 [1] | IC50 (Karpas422 cells)
C[C@H]1CN(CC2CCO2)CCN1c1cc(NC(=O)Cn2cc(-c3cc(C(N)=O)c(O)c(F)c3F)c3c(=O)n(C)cnc32)c(Cl)c(F)n1 (stereo partly drawn) [Compound I-460, 5-(7-(2-((3-chloro-2-fluoro-6-((2S)-2-methyl-4-(oxetan-2-ylmethyl)piperazin-1-yl)pyridin-4-yl)amino)-2-oxoethyl)-3-methyl-4-oxo-4,7-dihydro-3H-pyrrolo[2,3-d]pyrimidin-5-yl)-3,4-difluoro-2-hydroxybenzamide] | 0.00987 µM | 0.102 µM | 0.223 µM
Cn1cnc2c(c(-c3cc(Cl)c(O)c(C(N)=O)c3)cn2CC(=O)Nc2ccc([N+](=O)[O-])cc2Cl)c1=O [Compound I-385] | 0.0384 µM | 0.312 µM | 0.335 µM
Cn1cnc2c(c(-c3cc(C(N)=O)c(O)c(Cl)c3F)cn2CC(=O)Nc2cc(N3CCOCC3)ncc2F)c1=O [Compound I-196] | 0.323 µM | 6.34 µM | 10 µM
CN(C1CCC(c2cc(NC(=O)Cn3cc(-c4cc(Cl)c(O)c(C(N)=O)c4)c4c(=O)n(C)cnc43)c(Cl)cn2)C1)S(C)(=O)=O (stereo not drawn) [Compound I-148] | 0.0209 µM | 1.31 µM | 0.541 µM
Cc1nc2cc(Cl)c(NC(=O)Cn3cc(-c4cc(F)c(O)c(C(N)=O)c4)c4c(=O)n(C)cnc43)cc2s1 [Compound I-160] | 0.0391 µM | 0.396 µM | 0.507 µM
CC(C)[C@H]1CN(C)CCN1c1cc(NC(=O)Cn2cc(-c3cc(C(N)=O)c(O)c(F)c3F)c3c(=O)n(C)cnc32)c(Cl)cn1 [Compound I-361] | 0.0708 µM | 1.33 µM | 1.37 µM
Cc1nc2c(c(-c3cc(Cl)c(O)c(C(N)=O)c3)cn2CC(=O)Nc2cc(N3CCN(C)CC3)ncc2Cl)c(=O)n1C [Compound I-306] | 0.0158 µM | 0.106 µM | 0.265 µM
Cn1cnc2c(c(-c3cc(F)c(O)c(C(N)=O)c3)cn2CC(=O)Nc2cc(N3CCOCC3)c(F)cc2Cl)c1=O [Compound I-219] | 0.0709 µM | 0.535 µM | 0.216 µM
CN1CC2CCC(C1)N2c1cc(NC(=O)Cn2cc(-c3cc(C(N)=O)c(O)c(F)c3F)c3c(=O)n(C)cnc32)c(Cl)cn1 [Compound I-320] | 0.0484 µM | 1.15 µM | 0.979 µM
Cn1cnc2c(c(-c3cc(C(N)=O)c(O)cc3F)cn2CC(=O)Nc2cc(N3CCOCC3)ncc2F)c1=O [Compound I-222] | 0.228 µM | 1.33 µM | 0.371 µM
C[C@H]1CNCCN1c1cc(NC(=O)Cn2cc(-c3cc(C(N)=O)c(O)c4c3OCO4)c3c(=O)n(C)cnc32)c(Cl)c(F)n1 [Compound I-349] | 0.00329 µM | 0.131 µM | 0.0873 µM
Cc1c(N2CCOCC2)ncc(F)c1NC(=O)Cn1cc(-c2cc(Cl)c(O)c(C(N)=O)c2)c2c(=O)n(C)cnc21 [Compound I-194] | 0.12 µM | 11 µM | 5.65 µM
CN1CCC2(C1)CN(c1cc(NC(=O)Cn3cc(-c4cc(Cl)c(O)c(C(N)=O)c4)c4c(=O)n(C)cnc43)c(Cl)cn1)C2 [Compound I-479] | 0.0162 µM | 1.43 µM | 0.778 µM
Cn1cnc2c(c(-c3cc(C(N)=O)c(O)c(F)c3F)cn2CC(=O)Nc2cc(N3CCOCC3)ncc2Cl)c1=O [Compound I-178] | 0.0621 µM | 0.96 µM | 0.877 µM
CN1C(C)(C)CN(c2cc(NC(=O)Cn3cc(-c4cc(Cl)c(O)c(C(N)=O)c4)c4c(=O)n(C)cnc43)c(Cl)cn2)CC1(C)C [Compound I-146] | 0.0184 µM | 0.182 µM | 0.121 µM
CN(C)CC1COCCN1c1cc(NC(=O)Cn2cc(-c3cc(Cl)c(O)c(C(N)=O)c3)c3c(=O)n(C)cnc32)c(Cl)cn1 (stereo not drawn) [Compound I-330] | 0.0394 µM | 0.89 µM | 0.56 µM
Cn1ccc2c(c(-c3cc(F)c(O)c(C(N)=O)c3)cn2CC(=O)Nc2cc(N3CCOCC3)ncc2Cl)c1=O [Compound I-140] | 0.317 µM | 1.33 µM | 1.28 µM
COc1c(O)c(C(N)=O)cc(-c2cn(CC(=O)Nc3cc(N4CCOC[C@@H]4C)ncc3Cl)c3ncn(C)c(=O)c23)c1F [Compound I-168] | 0.074 µM | 1.3 µM | 0.769 µM
C[C@H]1CN(C)CCN1c1cc(NC(=O)Cn2cc(-c3cc(F)c(O)c(C(N)=O)c3)c3c(=O)n(CCC(=O)c4cnn(C)c4)cnc32)c(Cl)c(F)n1 [Compound I-430, (S)-5-(7-(2-((3-chloro-6-(2,4-dimethylpiperazin-1-yl)-2-fluoropyridin-4-yl)amino)-2-oxoethyl)-3-(3-(1-methyl-1H-pyrazol-4-yl)-3-oxopropyl)-4-oxo-4,7-dihydro-3H-pyrrolo[2,3-d]pyrimidin-5-yl)-3-fluoro-2-hydroxybenzamide] | 0.0232 µM | 0.622 µM | 0.38 µM
Cn1cnc2c(c(-c3cc(Cl)c(O)c(C(N)=O)c3)cn2CC(=O)Nc2cc(N3CCC4(CCOC4)C3)ncc2Cl)c1=O (stereo not drawn) [Compound I-76] | 0.012 µM | 0.155 µM | 0.112 µM

SMILES | Kd (BCL6 BTB domain) | EC50 [1] | IC50 (Karpas422 cells)
CN(C)C1CN(c2cc(NC(=O)Cn3cc(-c4cc(F)c(O)c(C(N)=O)c4)c4c(=O)n(C)cnc43)c(Cl)cn2)C1 [Compound I-433] | 0.00842 µM | 0.548 µM | 0.201 µM
C[C@H]1CN(C)CCN1c1cc(NC(=O)Cn2cc(-c3cc(Cl)c(O)c(C(N)=O)c3)c3c(=O)n(C)c(-c4ccccc4)nc32)c(Cl)cn1 [Compound I-260, (S)-3-chloro-5-(7-(2-((5-chloro-2-(2,4-dimethylpiperazin-1-yl)pyridin-4-yl)amino)-2-oxoethyl)-3-methyl-4-oxo-2-phenyl-4,7-dihydro-3H-pyrrolo[2,3-d]pyrimidin-5-yl)-2-hydroxybenzamide] | 0.0588 µM | 10 µM | 0.238 µM
CN1CCN(c2cc(NC(=O)Cn3cc(-c4cc(C(N)=O)c(O)c(F)c4F)c4c(=O)n(C)cnc43)c(Cl)cn2)C(C)(C)C1 [Compound I-327] | 0.271 µM | 3 µM | 2.07 µM
C[C@H]1COCCN1c1cc(NC(=O)Cn2cc(-c3cc(C(N)=O)c(O)c4c3OCO4)c3c(=O)n(C)cnc32)c(Cl)cn1 [Compound I-302] | 0.00505 µM | 0.0865 µM | 0.0528 µM
Cn1cnc2c(c(-c3cc(Cl)c(O)c(C(N)=O)c3)cn2CC(=O)Nc2cc(N3CCOCC3(C)C)ncc2Cl)c1=O [Compound I-212] | 0.0284 µM | 0.494 µM | 0.457 µM
Cc1nc2c(c(-c3cc(C(N)=O)c(O)c4c3OCO4)cn2CC(=O)Nc2cc(N3CCNC[C@@H]3C)nc(F)c2Cl)c(=O)n1C [Compound I-230] | 0.00232 µM | 0.0625 µM | 0.0157 µM
CO[C@@H](C)CN1CCN(c2cc(NC(=O)Cn3cc(-c4cc(C(N)=O)c(O)c(F)c4F)c4c(=O)n(C)cnc43)c(Cl)c(F)n2)[C@@H](C)C1 [Compound I-462] | 0.0503 µM | 0.184 µM | 0.289 µM
Cc1nc2c(c(-c3cc(C(N)=O)c(O)c4c3OCCO4)cn2CC(=O)Nc2cc(N3CCOC[C@@H]3C)ncc2Cl)c(=O)n1C [Compound I-309] | 0.146 µM | 1.02 µM | 2.55 µM
Cc1c(O)c(C(N)=O)cc(-c2cn(CC(=O)Nc3cc(N4CCOCC4)ncc3Cl)c3ncn(C)c(=O)c23)c1F [Compound I-118] | 2 µM | > 10 µM | 2.45 µM
CN1CC2CC1CN2c1cc(NC(=O)Cn2cc(-c3cc(C(N)=O)c(O)c(F)c3F)c3c(=O)n(C)cnc32)c(Cl)cn1 (stereo not drawn) [Compound I-324] | 0.264 µM | 10 µM | 10 µM
CN1CCc2cc(NC(=O)Cn3cc(-c4cc(Cl)c(O)c(C(N)=O)c4)c4c(=O)n(C)cnc43)c(Cl)cc21 [Compound I-183] | 0.221 µM | 3.91 µM | 10 µM
Cn1cnc2c(c(-c3cc(Cl)c(O)c(C(N)=O)c3)cn2CC(=O)Nc2cc(N3Cc4ccncc4C3)ncc2Cl)c1=O [Compound I-152] | 0.0207 µM | 0.168 µM | 0.134 µM
CO[C@@H]1CN(c2cc(NC(=O)Cn3cc(-c4cc(Cl)c(O)c(C(N)=O)c4)c4c(=O)n(C)cnc43)c(Cl)cn2)C[C@@H]1F [Compound I-365] | 0.0174 µM | 0.281 µM | 0.462 µM
NC(=O)c1cc(-c2cn(CC(=O)Nc3cc(N4CC5CCC(C4)O5)ncc3Cl)c3nc[nH]c(=O)c23)cc(Cl)c1O [Compound I-242] | 0.00501 µM | 0.483 µM | 0.312 µM
C[C@H]1CN(CCC(F)(F)F)CCN1c1cc(NC(=O)Cn2cc(-c3cc(C(N)=O)c(O)c(F)c3F)c3c(=O)n(C)cnc32)c(Cl)c(F)n1 [Compound I-464] | 0.0838 µM | 0.213 µM | 0.421 µM
Cc1ccc(CN2CCN(c3cc(NC(=O)Cn4cc(-c5cc(C(N)=O)c(O)c(F)c5F)c5c(=O)n(C)cnc54)c(Cl)cn3)[C@@H](C)C2)s1 [Compound I-406] | 0.574 µM | 3.06 µM | 4.32 µM
COc1ncc(Cl)c(NC(=O)Cn2cc(-c3cc(C(N)=O)c(O)c(F)c3F)c3c(=O)n(C)c(C)nc32)c1F [Compound I-381] | 0.24 µM | 10 µM | 10 µM
C[C@H]1CN(CC2CC2)CCN1c1cc(NC(=O)Cn2cc(-c3cc(Cl)c(O)c(C(N)=O)c3)c3c(=O)n(C)cnc32)c(Cl)cn1 [Compound I-301] | 0.0196 µM | 0.21 µM | 0.252 µM
C[C@@H]1CCCN1c1cc(NC(=O)Cn2cc(-c3cc(Cl)c(O)c(C(N)=O)c3)c3c(=O)n(C)cnc32)c(Cl)cn1 [Compound I-135] | 0.069 µM | 3.01 µM | 1.43 µM
